# Tests used:
# [1] = molecular target: T1, DNA damage-binding protein 1/Cyclin-dependent kinase 12/Cyclin-K (Homo sapiens, UniProt O75909+Q16531+Q9NYV4); experiment: Molecular glue activity at human CDK12/CCNK (11 to 267 residues)/human DDB1-CUL4-RBX1 expressed in baculovirus expression system in human 293 TA cells assessed as CCNK protein degradation
# [2] = molecular target: T1, DNA damage-binding protein 1/Cyclin-dependent kinase 12/Cyclin-K; experiment: Molecular glue activity at human CDK12 (715 to 1052 residues)/Cyclin K/human DDB1-[…]-RBX1 expressed in baculovirus expression system assessed as Cyclin K protein degradation
# T1 sequence (O75909 whole entry, the tested form may be a part): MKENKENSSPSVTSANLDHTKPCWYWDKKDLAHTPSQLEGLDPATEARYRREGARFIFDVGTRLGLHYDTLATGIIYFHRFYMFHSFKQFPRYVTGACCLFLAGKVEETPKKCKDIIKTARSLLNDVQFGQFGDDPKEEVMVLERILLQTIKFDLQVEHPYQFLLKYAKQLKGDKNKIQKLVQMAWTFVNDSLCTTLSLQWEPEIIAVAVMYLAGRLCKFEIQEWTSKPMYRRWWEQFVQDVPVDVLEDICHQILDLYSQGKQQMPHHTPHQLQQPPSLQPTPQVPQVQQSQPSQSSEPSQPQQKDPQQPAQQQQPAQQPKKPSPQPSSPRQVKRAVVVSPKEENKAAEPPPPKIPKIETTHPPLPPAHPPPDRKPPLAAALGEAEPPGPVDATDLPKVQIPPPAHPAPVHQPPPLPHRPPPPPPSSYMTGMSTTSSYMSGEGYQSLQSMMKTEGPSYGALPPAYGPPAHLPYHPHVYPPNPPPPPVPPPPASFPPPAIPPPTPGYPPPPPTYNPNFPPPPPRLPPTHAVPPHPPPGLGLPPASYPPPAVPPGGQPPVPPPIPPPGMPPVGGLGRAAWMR
# T1 sequence (Q9NYV4 whole entry, the tested form may be a part): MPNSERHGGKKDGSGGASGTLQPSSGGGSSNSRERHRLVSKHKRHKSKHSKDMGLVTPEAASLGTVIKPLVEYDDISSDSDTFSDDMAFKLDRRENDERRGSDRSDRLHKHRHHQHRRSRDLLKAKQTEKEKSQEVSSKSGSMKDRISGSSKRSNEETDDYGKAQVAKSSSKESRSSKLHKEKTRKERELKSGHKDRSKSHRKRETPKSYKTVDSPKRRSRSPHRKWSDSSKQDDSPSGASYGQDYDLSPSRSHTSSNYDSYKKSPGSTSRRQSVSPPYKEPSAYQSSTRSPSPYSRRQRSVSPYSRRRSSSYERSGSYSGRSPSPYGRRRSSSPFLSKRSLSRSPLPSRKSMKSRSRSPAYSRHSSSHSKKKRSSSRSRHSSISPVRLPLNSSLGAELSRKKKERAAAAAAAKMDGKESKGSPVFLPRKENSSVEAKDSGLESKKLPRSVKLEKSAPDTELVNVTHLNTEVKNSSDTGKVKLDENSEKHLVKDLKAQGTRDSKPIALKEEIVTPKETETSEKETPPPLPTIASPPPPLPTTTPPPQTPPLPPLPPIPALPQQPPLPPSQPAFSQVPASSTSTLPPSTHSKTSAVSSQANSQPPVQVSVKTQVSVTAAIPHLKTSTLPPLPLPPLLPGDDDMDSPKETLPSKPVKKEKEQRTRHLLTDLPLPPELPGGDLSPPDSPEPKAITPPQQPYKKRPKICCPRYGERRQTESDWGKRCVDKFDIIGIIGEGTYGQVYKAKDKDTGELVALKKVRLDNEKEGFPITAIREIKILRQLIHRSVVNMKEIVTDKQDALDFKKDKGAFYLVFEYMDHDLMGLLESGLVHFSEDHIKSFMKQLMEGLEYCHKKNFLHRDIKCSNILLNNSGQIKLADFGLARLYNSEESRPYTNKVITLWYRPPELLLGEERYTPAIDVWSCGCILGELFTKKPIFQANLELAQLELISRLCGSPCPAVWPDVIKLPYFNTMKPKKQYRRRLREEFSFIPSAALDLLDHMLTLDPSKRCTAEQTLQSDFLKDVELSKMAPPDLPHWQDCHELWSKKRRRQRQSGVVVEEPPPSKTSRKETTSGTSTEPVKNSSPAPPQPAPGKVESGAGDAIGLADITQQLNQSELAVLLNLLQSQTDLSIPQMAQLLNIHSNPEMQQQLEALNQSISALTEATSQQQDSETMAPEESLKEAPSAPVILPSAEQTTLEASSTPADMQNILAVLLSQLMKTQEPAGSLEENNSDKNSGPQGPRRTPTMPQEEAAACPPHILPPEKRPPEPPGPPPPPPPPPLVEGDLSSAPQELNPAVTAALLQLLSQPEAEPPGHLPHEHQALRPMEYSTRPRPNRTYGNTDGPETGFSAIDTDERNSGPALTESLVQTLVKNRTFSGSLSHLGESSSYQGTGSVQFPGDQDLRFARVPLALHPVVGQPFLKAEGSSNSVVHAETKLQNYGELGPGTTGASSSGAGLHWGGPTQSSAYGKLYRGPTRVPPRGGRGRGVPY
# T1 sequence (Q16531 whole entry, the tested form may be a part): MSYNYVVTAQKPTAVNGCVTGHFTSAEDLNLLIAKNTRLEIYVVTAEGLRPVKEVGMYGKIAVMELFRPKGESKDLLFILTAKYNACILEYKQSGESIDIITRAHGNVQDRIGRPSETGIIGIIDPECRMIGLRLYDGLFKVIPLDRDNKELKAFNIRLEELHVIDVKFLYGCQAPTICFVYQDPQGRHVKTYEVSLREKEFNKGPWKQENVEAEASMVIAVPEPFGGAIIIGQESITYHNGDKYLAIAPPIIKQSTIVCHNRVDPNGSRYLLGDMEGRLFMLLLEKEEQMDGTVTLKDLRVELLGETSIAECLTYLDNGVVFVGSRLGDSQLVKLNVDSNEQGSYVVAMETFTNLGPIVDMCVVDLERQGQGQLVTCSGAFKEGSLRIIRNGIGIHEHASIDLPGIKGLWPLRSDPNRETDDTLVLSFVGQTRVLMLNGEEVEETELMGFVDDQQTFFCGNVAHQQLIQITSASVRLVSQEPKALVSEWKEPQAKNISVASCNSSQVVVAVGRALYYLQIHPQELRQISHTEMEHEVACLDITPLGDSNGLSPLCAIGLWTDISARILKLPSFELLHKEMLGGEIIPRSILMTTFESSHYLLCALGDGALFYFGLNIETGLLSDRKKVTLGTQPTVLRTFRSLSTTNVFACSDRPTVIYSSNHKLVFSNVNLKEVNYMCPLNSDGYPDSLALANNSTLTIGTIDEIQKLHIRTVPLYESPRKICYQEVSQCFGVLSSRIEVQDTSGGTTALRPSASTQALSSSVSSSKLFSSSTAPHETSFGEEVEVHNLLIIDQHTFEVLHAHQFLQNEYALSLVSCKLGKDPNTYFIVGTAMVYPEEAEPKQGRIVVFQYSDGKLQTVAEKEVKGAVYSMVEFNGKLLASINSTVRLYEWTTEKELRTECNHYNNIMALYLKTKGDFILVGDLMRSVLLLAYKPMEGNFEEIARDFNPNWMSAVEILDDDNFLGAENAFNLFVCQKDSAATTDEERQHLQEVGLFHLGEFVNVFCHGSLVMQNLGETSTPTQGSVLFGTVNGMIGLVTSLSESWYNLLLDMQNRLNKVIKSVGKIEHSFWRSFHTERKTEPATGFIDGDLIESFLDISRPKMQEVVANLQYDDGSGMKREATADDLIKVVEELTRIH
smiles,measurement,setting,value
Cc1cnc(NC(=O)Cc2csc(Nc3cccc(CO)n3)n2)s1,EC50,[1],41 nM
Cc1cccc(Nc2nc(CC(=O)Nc3ncc(C)s3)cs2)n1,EC50,[1],132 nM
same,EC50,[2],461 nM

# — ChEMBL document CHEMBL5150002, “Molecular Glues for Targeted Protein Degradation: From Serendipity to Rational Discovery” (J Med Chem, 2021)
